Data: patent publication US20110160266A1, “Novel Anti-Arrhythmia Agent” (THE UAB RESEARCH FOUNDATION, priority 2008, published 2011)
“Also recorded” adds a separate entry of the source. Counter-ions that a name gives are not always drawn.

Assays:
[1] = system: rat left atria; test: Reversal or prevention of 2-APB-induced SMA in superfused rat left atria
Description: (A) Titration curve of ranolazine reversal of SMA in superfused left atrial appendage. Superfused appendages (n=7) were treated with 2-APB and following the appearance of SMA they were titrated with increasing concentrations of ranolazine for 3-5 min at any concentration. Rates of SMA in the absence of pacing were recorded. (B) Typical raw mechanical data for an appendage treated with 2-APB and then with 0, 10 or 80 μM ranolazine. All data are in the absence of pacing. […]
To test whether an anion transport inhibitor affected SMA, atria (n=7) were paced at 0.1 Hz in KH and exposed to 15 μM 2-APB. Following the appearance of SMA, they were titrated with 100 to 400 μM DIDS for 3 to 5 min at each concentration. Whether SMA occurred at the end of each titration period was recorded.
In these experiments, a 2-APB model system was used to simulate abnormal automaticity. Specifically, paced (0.1 Hz) superfused left atria were treated with 2-APB (20 μM) and the pacing stimulus was stopped after the appearance of SMA. SKF-96365 (25 μM) was then added to the superfusate and the effect on SMA was measured.
Additional experiments determined the concentration-dependence of SKF-96365 inhibtion of SMA. These experiments were performed as described above except that various concentrations of SKF-96365 were added to the left atrial superfusate (about 10-65 μM).
In these experiments, a 2-APB model system was used to simulate abnormal automaticity. Specifically, superfused left atria were exposed to 0 or to 50 μM SKF-96365 for 10 min. Following this pre-incubation, muscles were titrated with increasing concentrations of 2-APB (0-30 μM) and the rate of SMA was measured about 10 min later in the absence of pacing.

[2] = system: rat left atria; test: Suppression of STA induced by 2-APB plus BayK 8644 or isoproterenol in left atria
Description: 3 Hz-paced left atria (n=9 per group) were superfused (i) in Krebs-Henseleit alone or (ii) they were treated with 20 μM 2-APB for 10 min, (iii) with 300 nM BayK 8644 for 10 min and with 20 μM 2-APB for 10 min, or (iv) they were treated with 300 nM BayK 8644 and 20 μM 2-APB for 10 min, then with 70 μM zatebradine (3-[3-[[2-(3,4-Dimethoxyphenyl)ethyl]methyl amino]propyl]-1,3,4,5-tetrahydro-7,8,-dimethoxy-2H-3-benzazepin-2-one hydrochloride) for 10 min (Baruscotti et al., 2005). Pacing was interrupted at these times and rates of SMA were recorded.
Left atria (n=9) were paced at 0.1 Hz, treated with 300 nM BayK 8644 for 5 min, then with 20 μM 2-APB for 10 min, and the pacing stimulus was stopped. These preparations then were incubated with six increasing concentrations of zatebradine (10-100 μM) for 3-5 min at each concentration, and rates of SMA were recorded. Untreated right atria (n=9) also were titrated with zatebradine and its effect on contraction frequency was recorded.
To test whether zatebradine affects left atrial force of contraction, two groups of left atria (n=9 per group) were paced at 3 Hz and treated with 300 nM BayK 8644. Five minutes later one group was incubated with six increasing concentrations of zatebradine (10-100 μM) for 3-5 min at each concentration, and forces of contraction were recorded. A second group was treated with BayK 8644 but not zatebradine, and forces of contraction were recorded at corresponding times.
To test whether zatebradine affects the SMA occurring in the presence of 2-APB and isoproterenol, left atria (n=7) were paced at 0.1 Hz, treated with 30 nM isoproterenol for 5 min, then with 20 μM 2-APB for 10 min, and the pacing stimulus was stopped. Rates of SMA were recorded, these left atria were exposed to 70 μM zatebradine for 10 min, and rates of SMA were recorded again. A group of right atria (n=7) also were exposed to 30 nM isoproterenol for 5 min and then to 70 μM zatebradine for 10 min. Right atrial contraction frequency was recorded at these two times.
To test whether ZD-7288, an If inhibitor structurally unrelated to zatebradine (Baruscotti et al., 2005; Sanders et al., 2006) affects the SMA occurring in the presence of 2-APB and BayK 8644, rat left atria (n=7) were treated with 300 nM BayK 8644 for 5 min, then with 20 μM 2-APB for 10 min, and the rates of ectopic activity were recorded. These atria then were incubated with six increasing concentrations of ZD-7288 (10-100 μM) for 3-5 min at each concentration, and the rates of SMA were recorded. Right atria (n=7) were titrated similarly with ZD-7288 (0-100 μM) and the change in their contraction frequency was recorded.
In these experiments, a 2-APB model system was used to simulate tachycardic abnormal automaticity. Specifically, superfused left atria were treated sequentially with 300 nM BayK 8644, an activator of voltage-dependent calcium entry, which loads myocytes with calcium, and then with 2-APB (20 μM) to activate the putative myocyte system for abnormal automaticity. […] SKF-96365 (10 μM) was added to the superfusate. SKF-96365 reversed STA in these left atria within 2-3 min and the muscle became quiescent in the absence of pacing (FIG. 34, “Rest”).
Additional experiments determined the concentration-dependence of SKF-96365 inhibition of STA. These experiments were performed as described above except that various concentrations of SKF-96365 were added to the left atrial superfusate (about 10-70 μM). Exposing left atria to various concentrations of SKF-96365 reversed STA (FIG. 35).

[3] = system: rat left atria
[4] = system: rat left atria; test: tissue or blood; settings: 5 min, read-out: IC50 for suppression of triggered ectopic contractions induced by ATX II
[5] = system: rat left atria; test: Chaotic, fibrillation-like activity in left atria at 37° C., paced at 6 Hz
Description: In this example, it was evaluated whether SKF-96365 could reverse chaotic, fibrillation-like activity. In these experiments, left atria were superfused at 37° C., paced at 6 Hz (a physiological rate under these conditions), exposed to 300 nM BayK 8644 to load calcium and then to 20 μM 2-APB to induce tachycardic activity.

COc1ccc(CCCOC(Cn2ccnc2)c2ccc(OC)cc2)cc1 (stereo not drawn) [SKF-96365, 1-[β-(3-(4-Methoxyphenyl)propoxy)-4-methoxyphenethyl]-1H-imidazole hydrochloride]
effect on normal excitation-contraction coupling ([1]; 25 μM SKF-96365, 0.1 Hz pacing restored after SMA suppression): did not affect normal excitation-contraction coupling | time to suppression of SMA ([1]; 25 μM SKF-96365, 2-APB-treated left atria, absence of pacing): 2 to 3 min | prevention of SMA by pre-treatment ([1]; 50 μM SKF-96365 for 10 min, then 2-APB 0-30 μM, measured ~10 min later without pacing, hydrochloride): prevents the appearance of SMA | IC50 ([1]; Rattus norvegicus, read-out: IC50 for inhibition (reversal) of SMA): ~15 µM | effect on 2-APB-induced sporadic ectopic activity (SMA) ([1]; titration after appearance of SMA, absence of pacing): suppressed SMA | time to suppression of SMA ([1]; various concentrations of SKF-96365 (about 10-65 μM)): 2 to 3 min | time to reversal of STA ([2]; 300 nM BayK 8644 + 20 μM 2-APB, SKF-96365 (10 μM), absence of pacing): 2 to 3 min | effect on STA initiated by BayK 8644 and 2-APB ([2]; 300 nM BayK 8644 + 20 μM 2-APB, zatebradine 70 μM, ZD-7288 10-100 μM, SKF-96365 about 10-70 μM, hydrochloride): reverses STA | effect on normal excitation-contraction coupling ([2]; after STA reversal, 0.1 Hz pacing restored): did not affect normal excitation-contraction coupling | triggered activity after exposure to SKF-96365 ([3]; 25 nM ATX II, 20 μM SKF-96365 for ~5 min, 1 Hz pacing, hydrochloride): shows no triggered activity; also recorded: shows no triggered events; also recorded: suppresses triggered activity | effect on left atrial force of contraction / mechanical performance (titration) ([3]; 25 nM ATX II, 1 Hz-paced, ~5 min at each concentration, hydrochloride): did not decrease the mechanical performance; also recorded: did not affect left atrial force of contraction | prevention of triggered activity by pre-treatment ([3]; SKF-96365 20 μM (legend 20-25 μM) for ~10 min before 25 nM ATX II, recorded over 10-15 min, hydrochloride): prevents the appearance of triggered activity; also recorded: triggered activity does not occur | time to reversal of triggered activity ([3]; SKF-96365 added to superfusate of left atria undergoing ATX II triggered activity): 2 to 5 min | IC50 [4]: ~12 µM | time to restoration of normal patterns of excitation-contraction ([5]; ~40 μM SKF-96365, 300 nM BayK 8644 + 20 μM 2-APB): 5 to 8 min | effect on chaotic, fibrillation-like mechanical activity ([5]; ~40 μM SKF-96365, hydrochloride): restores normal patterns of excitation-contraction; also recorded: no longer contracted chaotically
